Tests used:
Type in all cases: in vivo
[1] = system: Johnsongrass (Sorghum halepense, SORHA); assay: Pre-emerge greenhouse herbicide test, phytotoxicity rating; details: 14 days after application, rating scale 0-100
In short: (§1)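 Seeds sown in sandy loam one day before track-sprayer application of acetone solutions at 125–1000 g ai/ha (187 l/ha), then surface-watered to incorporate and bottom-watered. Injury scored visually at 14 days on a 0–100 scale (0 no damage, 100 complete death).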

[2] = system: large crabgrass (Digitaria sanguinalis, DIGSA); assay: as above; details: 14 days after application, rating scale 0-100
In short: as §1

[3] = system: redroot pigweed (Amaranthus retroflexus, AMARE); assay: as above; details: 14 days after application, rating scale 0-100
In short: as §1

[4] = system: ivyleaf morningglory (Ipomoea hederacea, IPOHE); assay: as above; details: 14 days after application, rating scale 0-100
In short: as §1

[5] = system: barnyardgrass (Echinochloa crusgalli, ECHCG); assay: as above; details: 14 days after application, rating scale 0-100
In short: as §1

[6] = system: sicklepod (Cassia obtusifolia, CASOB); assay: as above; details: 14 days after application, rating scale 0-100
In short: as §1

[7] = system: common ragweed (Ambrosia artemisiifolia L., AMBEL); assay: as above; details: 14 days after application, rating scale 0-100
In short: as §1

[8] = system: velvetleaf (Abutilon theophrasti, ABUTH); assay: as above; details: 14 days after application, rating scale 0-100
In short: as §1

[9] = system: lambsquarters (Chenopodium album, CHEAL); assay: as above; details: 14 days after application, rating scale 0-100
In short: as §1

[10] = system: green foxtail (Setaria viridis, SETVI); assay: as above; details: 14 days after application, rating scale 0-100
In short: as §1

[11] = system: field corn (Zea mays L., var. Dekalb 535, CORN); assay: Post-emerge greenhouse test, crop damage rating; details: 14 days after application
In short: (§2)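 Plants at the 2-3 leaf stage, sown 8-21 days earlier, were track-sprayed post-emergence with compound in acetone plus 0.25% v/v non-ionic surfactant at 63-1000 g ai/ha (187 l/ha). Damage was rated at 14 days on a 0-100 scale (0 none, 100 all plants dead), for both crop injury and weed control.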

[12] = system: upland rice (Oryza sp., var.Tebonnet, RICE); assay: Post-emerge greenhouse test, crop damage rating; details: 14 days after application
In short: as §2

[13] = system: Johnsongrass (Sorghum halepense, SORHA); assay: Post-emerge greenhouse herbicide test, phytotoxicity rating; details: 14 days after application
In short: as §2

[14] = system: large crabgrass (Digitaria sanguinalis, DIGSA); assay: as above; details: 14 days after application
In short: as §2

[15] = system: redroot pigweed (Amaranthus retroflexus, AMARE); assay: as above; details: 14 days after application
In short: as §2

[16] = system: ivyleaf morningglory (Ipomoea hederacea, IPOHE); assay: as above; details: 14 days after application
In short: as §2

[17] = system: barnyardgrass (Echinochloa crusgalli, ECHCG); assay: as above; details: 14 days after application
In short: as §2

[18] = system: sicklepod (Cassia obtusifolia, CASOB); assay: as above; details: 14 days after application
In short: as §2

[19] = system: velvetleaf (Abutilon theophrasti, ABUTH); assay: as above; details: 14 days after application
In short: as §2

[20] = system: lambsquarters (Chenopodium album, CHEAL); assay: as above; details: 14 days after application
In short: as §2

[21] = system: green foxtail (Setaria viridis, SETVI); assay: as above; details: 14 days after application
In short: as §2

[22] = system: soybean (Glycine max L., var. Pella 86, SOY); assay: Post-emerge greenhouse test, crop damage rating; details: 14 days after application
In short: as §2

[23] = system: common ragweed (Ambrosia artemisiifolia L., AMBEL); assay: Post-emerge greenhouse herbicide test, phytotoxicity rating; details: 14 days after application
In short: as §2

[24] = system: soybean (Glycine max L., var. Pella 86, SOY); assay: Pre-emerge greenhouse test, crop damage rating; details: 14 days after application, rating scale 0-100
In short: as §1

[25] = system: field corn (Zea mays L., var. Dekalb 535, CORN); assay: Pre-emerge greenhouse test, crop damage rating; details: 14 days after application, rating scale 0-100
In short: as §1

[26] = system: upland rice (Oryza sp., var.Tebonnet, RICE); assay: Pre-emerge greenhouse test, crop damage rating; details: 14 days after application, rating scale 0-100
In short: as §1

## COc1cc(OC)nc(Oc2cc(-n3nnn(CCCF)c3=O)c(F)cc2Cl)n1 [Compound 6-15]
[1]; 125 g ai/ha
  phytotoxicity rating SORHA: 0
[1]; 500 g ai/ha
  phytotoxicity rating SORHA: 10
[2]; 125 g ai/ha
  phytotoxicity rating DIGSA: 10
[2]; 500 g ai/ha
  phytotoxicity rating DIGSA: 60
[3]; 125 g ai/ha
  phytotoxicity rating AMARE: 30
[3]; 500 g ai/ha
  phytotoxicity rating AMARE: 100
[4]; 125 g ai/ha
  phytotoxicity rating IPOHE: 0
[4]; 500 g ai/ha
  phytotoxicity rating IPOHE: 10
[5]; 125 g ai/ha
  phytotoxicity rating ECHCG: 0
[5]; 500 g ai/ha
  phytotoxicity rating ECHCG: 0
[6]; 125 g ai/ha
  phytotoxicity rating CASOB: 0
[6]; 500 g ai/ha
  phytotoxicity rating CASOB: 30
[7]; 125 g ai/ha
  phytotoxicity rating AMBEL: 0
[7]; 500 g ai/ha
  phytotoxicity rating AMBEL: 0
[8]; 125 g ai/ha
  phytotoxicity rating ABUTH: 20
[8]; 500 g ai/ha
  phytotoxicity rating ABUTH: 100
[9]; 125 g ai/ha
  phytotoxicity rating CHEAL: 20
[9]; 500 g ai/ha
  phytotoxicity rating CHEAL: 100
[10]; 125 g ai/ha
  phytotoxicity rating SETVI: 10
[10]; 500 g ai/ha
  phytotoxicity rating SETVI: 90
[11]; 63 g al/ha
  CORN crop damage rating (0-100): 0
[11]; 500 g al/ha
  CORN crop damage rating (0-100): 5
[12]; 63 g al/ha
  RICE crop damage rating (0-100): 0
[12]; 500 g al/ha
  RICE crop damage rating (0-100): 5
[13]; 63 g al/ha
  SORHA phytotoxicity rating (0-100): 0
[13]; 500 g al/ha
  SORHA phytotoxicity rating (0-100): 10
[14]; 63 g al/ha
  DIGSA phytotoxicity rating (0-100): 0
[14]; 500 g al/ha
  DIGSA phytotoxicity rating (0-100): 0
[15]; 63 g al/ha
  AMARE phytotoxicity rating (0-100): 20
[15]; 500 g al/ha
  AMARE phytotoxicity rating (0-100): 95
[16]; 63 g al/ha
  IPOHE phytotoxicity rating (0-100): 20
[16]; 500 g al/ha
  IPOHE phytotoxicity rating (0-100): 70
[17]; 63 g al/ha
  ECHCG phytotoxicity rating (0-100): 0
[17]; 500 g al/ha
  ECHCG phytotoxicity rating (0-100): 0
[18]; 63 g al/ha
  CASOB phytotoxicity rating (0-100): 20
[18]; 500 g al/ha
  CASOB phytotoxicity rating (0-100): 40
[19]; 63 g al/ha
  ABUTH phytotoxicity rating (0-100): 60
[19]; 500 g al/ha
  ABUTH phytotoxicity rating (0-100): 99
[20]; 63 g al/ha
  CHEAL phytotoxicity rating (0-100): 50
[20]; 500 g al/ha
  CHEAL phytotoxicity rating (0-100): 90
[21]; 63 g al/ha
  SETVI phytotoxicity rating (0-100): 0
[21]; 500 g al/ha
  SETVI phytotoxicity rating (0-100): 40
[22]; 63 g al/ha
  SOY crop damage rating (0-100): 0
[22]; 500 g al/ha
  SOY crop damage rating (0-100): 40
[23]; 63 g al/ha
  AMBEL phytotoxicity rating (0-100): 0
[23]; 500 g al/ha
  AMBEL phytotoxicity rating (0-100): 20
[24]; 125 g ai/ha
  crop damage rating SOY: 0
[24]; 500 g ai/ha
  crop damage rating SOY: 0
[25]; 125 g ai/ha
  crop damage rating CORN: 0
[25]; 500 g ai/ha
  crop damage rating CORN: 100
[26]; 125 g ai/ha
  crop damage rating RICE: 0
[26]; 500 g ai/ha
  crop damage rating RICE: 10

Reference: patent US6479435B1, “Diaryl ethers and processes for their preparation and herbicidal and desiccant compositions containing them” (ISK Americas Incorporated, priority 1997, dated 2002)
